ChEMBL document CHEMBL3621142, “Discovery and Evaluation of Clinical Candidate AZD3759, a Potent, Oral Active, Central Nervous System-Penetrant, Epidermal Growth Factor Receptor Tyrosine Kinase Inhibitor” (J Med Chem, 2015)
Active and inactive are the calls of the source. No cut-off for these calls is given here.

Tested on: MDR1 (P-gp)
Assay: Efflux ratio of permeability from basolateral to apical side over apical to basolateral side in MDCK2-MDR1 cells
Assay type: ADME, cell-based, Canis lupus familiaris
Conditions: dog, MDCK-MDR1

First: COc1cc2ncnc(Nc3cccc(Cl)c3F)c2cc1OC(=O)N1CCOCC1
Second: COc1cc2ncnc(Nc3cccc(Cl)c3F)c2cc1N1CCOCC1
The efflux ratio of the first is higher: 0.58 for the first, 0.29 for the second.

Compared with `COc1cc2ncnc(Nc3cccc(Cl)c3F)c2cc1OC(=O)N1CC[C@H](N(C)C)C1`, `C#Cc1cccc(Nc2ncnc3cc(OCCOC)c(OCCOC)cc23)c1` [ERLOTINIB] is higher in efflux ratio: 0.34 for the first, 1.7 for the second.

Tested on: BCRP
Assay: Permeability from apical to basolateral side in BCRP transfected MDCK2 cells
Assay type: ADME, cell-based, Canis lupus familiaris, MDCK-II
Conditions: dog

Molecule `C#Cc1cccc(Nc2ncnc3cc(OCCOC)c(OCCOC)cc23)c1` [ERLOTINIB] has a Papp A→B of 14 ×10⁻⁶ cm/s.

Tested on: not listed separately
Assay: Fraction unbound in Han Wistar rat blood at 5 uM by equilibrium dialysis method
Assay type: ADME, tissue-based
Conditions: Han Wistar

Compared with `COc1cc2ncnc(Nc3cccc(Cl)c3F)c2cc1OC(=O)N1CCOCC1`, `COc1cc2ncnc(Nc3cccc(Cl)c3F)c2cc1N1CCOCC1` is higher in fraction unbound at 5 µM: 0.038 for the first, 0.058 for the second.

Compared with `COc1cc2ncnc(Nc3cccc(Cl)c3F)c2cc1OC(=O)N1CC[C@H](N(C)C)C1`, `C#Cc1cccc(Nc2ncnc3cc(OCCOC)c(OCCOC)cc23)c1` [ERLOTINIB] is lower in fraction unbound at 5 µM: 0.049 for the first, 0.045 for the second.

Tested on: not listed separately
Assay: Fraction unbound in Han Wistar rat brain at 5 uM by equilibrium dialysis method
Assay type: ADME, tissue-based
Conditions: Han Wistar, brain

Going from `COc1cc2ncnc(Nc3cccc(Cl)c3F)c2cc1OC(=O)N1CCOCC1` to `COc1cc2ncnc(Nc3cccc(Cl)c3F)c2cc1N1CCOCC1`, the fraction unbound at 5 µM falls from 0.026 to 0.022.

Going from `COc1cc2ncnc(Nc3cccc(Cl)c3F)c2cc1OC(=O)N1CC[C@H](N(C)C)C1` to `C#Cc1cccc(Nc2ncnc3cc(OCCOC)c(OCCOC)cc23)c1` [ERLOTINIB], the fraction unbound at 5 µM rises from 0.024 to 0.029.

Tested on: not listed separately
Assay: Ratio of unbound AUC (0 to 24 hrs) in brain to blood of Han Wistar rat at 20 mg/kg, po by LC-MS/MS analysis
Assay type: ADME, organism-based
Conditions: brain and blood, read-out: K(p,uu,brain)

Molecule `C#Cc1cccc(Nc2ncnc3cc(OCCOC)c(OCCOC)cc23)c1` [ERLOTINIB] has a Kp uu of 0.11.

Tested on: not listed separately
Assay: Ratio of unbound AUC (0 to 24 hrs) in CSF to blood of Han Wistar rat at 20 mg/kg, po by LC-MS/MS analysis
Assay type: ADME, organism-based
Conditions: CSF and blood

For `C#Cc1cccc(Nc2ncnc3cc(OCCOC)c(OCCOC)cc23)c1` [ERLOTINIB], the Kp uu was 0.29.

Biological target: Epidermal growth factor receptor (Homo sapiens, UniProt P00533, L858R)
Assay: not given
Assay type: cell-based, H3255
Conditions: not given

Epidermal growth factor receptor, sequence (P00533 25-1210 L858R limits assumed): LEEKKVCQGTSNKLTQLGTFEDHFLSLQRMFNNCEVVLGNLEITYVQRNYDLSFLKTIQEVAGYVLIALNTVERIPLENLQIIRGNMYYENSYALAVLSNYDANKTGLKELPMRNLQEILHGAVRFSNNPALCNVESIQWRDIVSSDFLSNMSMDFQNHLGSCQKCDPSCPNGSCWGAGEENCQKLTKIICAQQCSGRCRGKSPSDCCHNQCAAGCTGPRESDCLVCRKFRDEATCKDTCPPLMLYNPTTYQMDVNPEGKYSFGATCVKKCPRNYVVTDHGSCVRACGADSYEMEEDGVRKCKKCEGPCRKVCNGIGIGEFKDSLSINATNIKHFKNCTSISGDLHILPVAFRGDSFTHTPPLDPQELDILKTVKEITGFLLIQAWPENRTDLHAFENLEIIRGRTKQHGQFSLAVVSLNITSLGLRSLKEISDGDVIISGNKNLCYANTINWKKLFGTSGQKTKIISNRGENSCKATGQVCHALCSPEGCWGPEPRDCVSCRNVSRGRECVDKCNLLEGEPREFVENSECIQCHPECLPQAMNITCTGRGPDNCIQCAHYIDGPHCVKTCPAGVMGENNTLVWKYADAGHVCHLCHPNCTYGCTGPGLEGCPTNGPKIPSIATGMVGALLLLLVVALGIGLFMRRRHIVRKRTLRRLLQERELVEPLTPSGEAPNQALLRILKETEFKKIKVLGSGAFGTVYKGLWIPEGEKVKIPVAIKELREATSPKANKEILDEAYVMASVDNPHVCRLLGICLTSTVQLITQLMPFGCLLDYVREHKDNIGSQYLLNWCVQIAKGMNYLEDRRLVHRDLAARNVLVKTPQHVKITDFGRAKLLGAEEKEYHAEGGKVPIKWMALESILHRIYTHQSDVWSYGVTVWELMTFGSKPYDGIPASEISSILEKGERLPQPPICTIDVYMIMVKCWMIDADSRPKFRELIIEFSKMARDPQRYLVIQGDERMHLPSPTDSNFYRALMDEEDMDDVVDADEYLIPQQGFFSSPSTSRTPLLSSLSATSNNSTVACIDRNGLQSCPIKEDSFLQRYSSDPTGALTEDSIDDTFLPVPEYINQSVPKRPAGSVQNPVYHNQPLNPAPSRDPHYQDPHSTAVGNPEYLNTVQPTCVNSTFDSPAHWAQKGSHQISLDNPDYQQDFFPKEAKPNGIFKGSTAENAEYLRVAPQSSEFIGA

Compared with `COc1cc2ncnc(Nc3cccc(Cl)c3F)c2cc1OC(=O)N1CCOCC1`, `COc1cc2ncnc(Nc3cccc(Cl)c3F)c2cc1N1CCOCC1` is 2.7-fold lower in IC50: 4.1 nM for the first, 1.5 nM for the second. The second is the more potent here.

In the case of `COc1cc2ncnc(Nc3cccc(Cl)c3F)c2cc1OC(=O)N1CC[C@H](N(C)C)C1`, the IC50 is reported as 2.7 nM.

Tested on: not listed separately
Assay: AUC (0 to 7 hrs) in Han Wistar rat brain at 2 mg/kg, po by LC-MS/MS analysis
Assay type: ADME, organism-based
Parameters: dose 2 mg/kg, time < 7 hr, route oral
Conditions: Han Wistar, brain

`COc1cc2ncnc(Nc3cccc(Cl)c3F)c2cc1OC(=O)N1CCOCC1` and `COc1cc2ncnc(Nc3cccc(Cl)c3F)c2cc1N1CCOCC1` are within 1.5-fold of each other in AUC(0-t) at 7 h: 0.104 µM·h for the first, 0.085 µM·h for the second.

With `COc1cc2ncnc(Nc3cccc(Cl)c3F)c2cc1OC(=O)N1CC[C@H](N(C)C)C1` the AUC(0-t) at 7 h was 0.798 µM·h.

Tested on: not listed separately
Assay: AUC (0 to 7 hrs) in Han Wistar rat CSF at 2 mg/kg, po by LC-MS/MS analysis
Assay type: ADME, organism-based, Cerebrospinal fluid
Parameters: time < 7 hr, dose 2 mg/kg, route oral
Conditions: Han Wistar, CSF

Compared with `COc1cc2ncnc(Nc3cccc(Cl)c3F)c2cc1OC(=O)N1CCOCC1`, `COc1cc2ncnc(Nc3cccc(Cl)c3F)c2cc1N1CCOCC1` is 2.5-fold lower in AUC(0-t) at 7 h: 0.005 µM·h for the first, 0.002 µM·h for the second.

Molecule `COc1cc2ncnc(Nc3cccc(Cl)c3F)c2cc1OC(=O)N1CC[C@H](N(C)C)C1` has an AUC(0-t) at 7 h of 0.068 µM·h.

Tested on: not listed separately
Assay: AUC (0 to 7 hrs) in Han Wistar rat blood at 2 mg/kg, po by LC-MS/MS analysis
Assay type: ADME, organism-based
Parameters: dose 2 mg/kg, time < 7 hr, route oral
Conditions: Han Wistar, blood

`COc1cc2ncnc(Nc3cccc(Cl)c3F)c2cc1OC(=O)N1CCOCC1` and `COc1cc2ncnc(Nc3cccc(Cl)c3F)c2cc1N1CCOCC1` are within 1.5-fold of each other in AUC(0-t) at 7 h: 0.042 µM·h for the first, 0.033 µM·h for the second.

In the case of `COc1cc2ncnc(Nc3cccc(Cl)c3F)c2cc1OC(=O)N1CC[C@H](N(C)C)C1`, the AUC(0-t) at 7 h is reported as 2.48 µM·h.

Tested on: not listed separately
Assay: Ratio of unbound AUC (0 to 7 hrs) in brain to blood of Han Wistar rat at 2 mg/kg, po by LC-MS/MS analysis
Assay type: ADME, organism-based
Conditions: Han Wistar, brain and blood, read-out: K(p,uu,brain)

Going from `COc1cc2ncnc(Nc3cccc(Cl)c3F)c2cc1OC(=O)N1CCOCC1` to `COc1cc2ncnc(Nc3cccc(Cl)c3F)c2cc1N1CCOCC1`, the Kp uu falls from 1.7 to 0.96.

`COc1cc2ncnc(Nc3cccc(Cl)c3F)c2cc1OC(=O)N1CC[C@H](N(C)C)C1` showed a Kp uu of 0.15.

Tested on: not listed separately
Assay: Ratio of unbound AUC (0 to 7 hrs) in CSF to blood of Han Wistar rat at 2 mg/kg, po by LC-MS/MS analysis
Assay type: ADME, organism-based
Conditions: Han Wistar, CSF and blood

Compared with `COc1cc2ncnc(Nc3cccc(Cl)c3F)c2cc1OC(=O)N1CCOCC1`, `COc1cc2ncnc(Nc3cccc(Cl)c3F)c2cc1N1CCOCC1` is lower in Kp uu: 3.4 for the first, 0.93 for the second.

For `COc1cc2ncnc(Nc3cccc(Cl)c3F)c2cc1OC(=O)N1CC[C@H](N(C)C)C1`, the Kp uu was 0.56.

Tested on: not listed separately
Assay: Permeability from apical to basolateral side in MDCK2-MDR1 cells
Assay type: ADME, cell-based, Canis lupus familiaris, MDCK-II
Conditions: dog, MDCK-MDR1

`COc1cc2ncnc(Nc3cccc(Cl)c3F)c2cc1OC(=O)N1CCOCC1` and `COc1cc2ncnc(Nc3cccc(Cl)c3F)c2cc1N1CCOCC1` are within 1.5-fold of each other in Papp A→B: 42 ×10⁻⁶ cm/s for the first, 32 ×10⁻⁶ cm/s for the second.

`COc1cc2ncnc(Nc3cccc(Cl)c3F)c2cc1OC(=O)N1CC[C@H](N(C)C)C1` and `C#Cc1cccc(Nc2ncnc3cc(OCCOC)c(OCCOC)cc23)c1` [ERLOTINIB] are within 1.5-fold of each other in Papp A→B: 17 ×10⁻⁶ cm/s for the first, 19 ×10⁻⁶ cm/s for the second.

Tested on: PC-9
Assay: Antitumor activity against human PC9 cells expressing EGFR exon19 deletion mutant xenografted in mouse assessed as tumor regression at 15 mg/kg, qd measured after 4 weeks
Assay type: functional, organism-based
Conditions: not given

For `C#Cc1cccc(Nc2ncnc3cc(OCCOC)c(OCCOC)cc23)c1` [ERLOTINIB], the Activity was “Active”.

Tested on: Mus musculus
Assay: Toxicity in PC9 cells expressing EGFR exon19 deletion mutant xenografted mouse assessed as loss of body weight at 15 mg/kg, qd
Assay type: organism-based, PC-9
Conditions: in vivo

With `C#Cc1cccc(Nc2ncnc3cc(OCCOC)c(OCCOC)cc23)c1` [ERLOTINIB] the Activity was “Toxic”.

Tested on: PC-9
Assay: Antitumor activity against human PC9 cells expressing EGFR exon19 deletion mutant xenografted in mouse at 15 mg/kg, qd measured after 4 weeks
Assay type: functional, organism-based
Conditions: not given

In the case of `C#Cc1cccc(Nc2ncnc3cc(OCCOC)c(OCCOC)cc23)c1` [ERLOTINIB], the Activity is reported as “Active”.

Tested on: BCRP
Assay: in vitro
Conditions: dog
Description: Efflux ratio of permeability from basolateral to apical side over apical to basolateral side in BCRP transfected MDCK2 cells

Work on `C#Cc1cccc(Nc2ncnc3cc(OCCOC)c(OCCOC)cc23)c1` [ERLOTINIB] yielded an efflux ratio of 5.4.
